Experimental data published in paper PMC10460844, “Real‐Time Monitoring of Multitarget Antimicrobial Mechanisms of Peptoids Using Label‐Free Imaging with Optical Diffraction Tomography” (Advanced Science, 2023).
Square brackets hold non-standard residues; d marks the D form. Peptide text beside a SMILES is read from it. Gly(N(CH2)2(3-indolyl)) = O=C(O)CNCCc1c[nH]c2ccccc12; Nspe = C[C@H](NCC(=O)O)c1ccccc1; Nlys = NCCCCNCC(=O)O

Key:
[1] = tested on: HaCaT human keratinocytes; assay: MTS cytotoxicity assay; type: cell-based; settings: 24 h exposure in DMEM, concentration killing 50% of cells
Protocol: 4. Cell culture and cytotoxicity test using MTS assay
(Seoul, South Korea), human keratinocytes (HaCaT) were provided by the Skin Research Institute R&D Center of Amore Pacific Company (Yongin, South Korea). All cells were grown in Dulbecco's modified Eagle’s medium (DMEM) supplemented with 10% fetal bovine serum at 37 °C in an atmosphere containing 5% CO2. The 3-(4,5-dimethylthiazol-2- […]
assays were used to determine the effects of peptoids on cell growth.[4] Aliquots (100 µL) of media containing 1.3×10^4 MRC-5 cells/mL or 3×10^4 HaCaT cells/mL were distributed into each well of a 96-well plate (Eppendorf, Hamburg, Germany). The cells were allowed to attach and were grown in a humidified atmosphere containing 5% CO2 at 37 °C for 24 h.
When the cell density reached approximately 70% confluency, the medium was replaced with serial dilutions of the peptoid stock in DMEM and incubated for an additional 24 h. […] The MTS-formazan products in viable cells were measured at 490 nm using a microplate reader, and the percentage of cell viability (%) was calculated by comparing readings to the values of untreated wells. Percentage values of cell viability were calculated as A/(A control)×100, where A is the absorbance of the test well and A control is the average absorbance of wells containing untreated cells. […]

E. coli ATCC 25922 = assay: Killing kinetics; type: cell-based; settings: 4 × MIC, E. coli ATCC 25922, MHB2, 37 °C, CFU counting, triplicates
Protocol: structure of peptoids. SAXS data on peptoids in aqueous environment at different peptoid concentrations (indicated in legends), plotted together with best fit. a) 11 b) 29.
14. In vitro biological assays
The kinetics of antimicrobial activity against E. coli (ATCC 25922) were assessed at a […]
Briefly, an overnight culture of bacteria was diluted at mid log-phase bacteria (2–5 × 10^5 cfu/mL) and incubated with peptoid with desired concentration in MHB2. The bacterial suspension was added to a 96-well polypropylene u- bottomed plate containing the peptoid. The plate was incubated without shaking at 37 °C for 4 h. Samples (20 μl) were taken at time 0.5, 1, 2 and 4 h and diluted in ice PBS buffer from which 100 μl was plated on LB agar plates. The plates were incubated for 18–24 hours at 37 °C and colony forming units (CFU) were counted. The experiment was conducted triplicates, and a curve was plotted between CFU and time (h).
The ability of peptoids to increase the permeability of the outer membrane of Gram-negative bacteria was determined by measuring the incorporation of the NPN fluorescent dye into the outer membrane of E. coli ATCC 25922. Bacterial cells were suspended to a final concentration of OD600 = 0.05 in 5 mM HEPES buffer, pH 7.2, containing 5 mM KCN. Then […]
(1 picture or pasted object on this page, not shown here)

| SMILES | LC50 HaCaT [1] | time to complete eradication of bacteria (E. coli ATCC 25922) |
| --- | --- | --- |
| C[C@@H](c1ccccc1)N(CC(N)=O)C(=O)CN(C(=O)CN(CCCCN)C(=O)CN(C(=O)CN(C(=O)CN(CCCCN)C(=O)CN(C(=O)CN(C(=O)CN(CCCCN)C(=O)CN(C(=O)CN(C(=O)CNCCCCN)[C@@H](C)c1ccccc1)[C@@H](C)c1ccccc1)[C@@H](C)c1ccccc1)[C@@H](C)c1ccccc1)[C@@H](C)c1ccccc1)[C@@H](C)c1ccccc1)[C@@H](C)c1ccccc1 [peptoid 1, reference compound] (H-[Nlys][Nspe][Nspe][Nlys][Nspe][Nspe][Nlys][Nspe][Nspe][Nlys][Nspe][Nspe]-NH2) | 7.3 µM |  |
| C[C@@H](c1ccccc1)N(CC(=O)N(CCCCN)CC(=O)N(CCc1c[nH]c2ccccc12)CC(=O)N(CCc1c[nH]c2ccccc12)CC(N)=O)C(=O)CN(CCCCN)C(=O)CN(CCCCN)C(=O)CN(C(=O)CN(C(=O)CN(CCCCN)C(=O)CN(C(=O)CN(C(=O)CNCCCCN)[C@@H](C)c1ccccc1)[C@@H](C)c1ccccc1)[C@@H](C)c1ccccc1)[C@@H](C)c1ccccc1 [peptoid 29] (H-[Nlys][Nspe][Nspe][Nlys][Nspe][Nspe][Nlys][Nlys][Nspe][Nlys][Gly(N(CH2)2(3-indolyl))][Gly(N(CH2)2(3-indolyl))]-NH2) |  | 4 h |
